According to patent US11945787B2, “Substituted imidazoles for preventing and/or treating cell or tissue necrosis” (Ela Pharma Ltd, priority 2015, dated 2024):

Tested on: PC12 cells
Assay: KCN-induced necrosis of PC12 cells, LDH release
Assay type: cell-based, rat
Details: for inhibition at 1 µM / inhibition at 0.01 µM / inhibition at 0.1 µM / inhibition at 0.0001 µM / inhibition at 0.001 µM: Rattus norvegicus, PC-12, 5 h, KCN, PC12, LDH release (Table 5); for inhibition at 1 µM: read-out: % protection at 1 μM; for inhibition at 0.01 µM / % protection at indicated concentration 10 nM: 10 nM; for inhibition at 0.01 µM: read-out: % protection At 10 nM; for inhibition at 0.1 µM: read-out: % protection at 0.1 μM; for % protection at indicated concentration 0.1 nM / % protection at indicated concentration 1 nM / % protection at indicated concentration 10 nM / % protection at indicated concentration 100 nM / % protection at indicated concentration 1 μM: KCN-induced necrosis (Table 2); for % protection at indicated concentration 0.1 nM / inhibition at 0.0001 µM: 0.1 nM; for inhibition at 0.0001 µM: read-out: % protection at 0.1 nM; for % protection at indicated concentration 1 nM / inhibition at 0.001 µM: 1 nM; for inhibition at 0.001 µM: read-out: % protection at 1 nM
Protocol: The rat pheochromocytoma PC12 cell line was propagated in DMEM medium (Beit Haemek, Israel), supplemented with 5% heat-inactivated calf serum, 10% heat-inactivated horse serum, 2 mM L-glutamine, 100 U/ml penicillin and 100 μg/ml streptomycin. PC12 cells in logarithmic phase were seeded at a concentration of 1.2×10^5/well in 96-well plates and incubated overnight.
Thereafter, the cells were washed twice and maintained in RPMI-1640 (U-937cells) and DMEM (PC-12 cells) glucose-free medium, supplemented with 2 mM pyruvate and 10% dialyzed FCS for one hour. Then cells were treated with or without KCN (Merck, Germany) at the indicated concentrations for 7 hours (U-937 cells), or for 5 hours (PC12 cells).
Elastase inhibitors II (MeOSuc-AAPA-CMK) and elastase inhibitor III (MeOSuc-AAPV-CMK) were purchased from Calbiochem-Novabiochem, USA. Compound Gly-Phe diazomethylketone was purchased from MP Biomedicals, USA. All the compounds disclosed in Table 1 hereinabove were purchased from ChemDiv, San Diego, CA. The compounds were dissolved in DMSO and were administered 30 min before addition of the cell death inducer. The final concentration of DMSO, added to all samples, was 0.1%, which had no effect by itself siRNA and cell transfection
The amount of LDH released from lysed cells is a sensitive measure of cell death. Necrotic cell death was measured in 96-well plates using Promega CytoTox 96 LDH assay kit. LDH content from the cells lysed in 0.1% Triton X-100 for 10 min was used as an index of total LDH. The LDH released in culture medium was used as an index of necrotic cell death and the percentage from total LDH was calculated. The protection by the inhibitor was calculated based on comparing percentage of LDH release in the presence and in the absence of the inhibitor. The inhibitors were also added to totals, blanks and controls. Absorbance at 490 nm was measured by ELISA reader (BioTec).
These compounds were tested for their ability to inhibit necrosis induced by KCN in PC12 cells. The necrotic mode of cell death in this system was validated as previously described. PC12 cells were challenged with KCN as described above. The protective results of the compounds against KCN-induced necrosis assessed using LDH release method are shown below in Table 5. The IC50 values of these inhibitors is in the range of tens to single nanomolar.

SMILES	inhibition at 1 µM [%]	inhibition at 0.01 µM [%]	inhibition at 0.1 µM [%]	% protection at indicated concentration 0.1 nM [%]	% protection at indicated concentration 1 nM [%]	% protection at indicated concentration 10 nM [%]	% protection at indicated concentration 100 nM [%]	% protection at indicated concentration 1 μM [%]	inhibition at 0.0001 µM [%]	inhibition at 0.001 µM [%]
COc1cc(C(=O)n2nc(C)cc2C)cc(OC)c1OC [3346-3249, (3,5-dimethyl-1H-pyrazol-1-yl)(3,4,5-trimethoxyphenyl)methanone]	52	–	–	–	–	–	–	–	–	–
O=C(O)c1cccc(S(=O)(=O)N2CCCC2)c1 [3506-0172, 3-(pyrrolidin-1-ylsulfonyl)benzoic acid]	52	18	19	–	–	–	–	–	–	–
COc1cc(OC)cc(-c2nc3ccc(Br)cc3c(=O)o2)c1 [3952-1000, 6-bromo-2-(3,5-dimethoxyphenyl)-4H-benzo[d][1,3]oxazin-4-one]	77	38	35	35	33	38	35	77	35	33
CN(C)c1ccc(Nc2nc(-c3ccc(Cl)cc3)cs2)cc1 [4112-3656, N1-(4-(4-chlorophenyl)thiazol-2-yl)-N4,N4-dimethylbenzene-1,4-diamine]	77	55	73	30	25	55	73	77	30	25
CC(=O)Oc1ccc2nc(-c3cccc(Br)c3)oc(=O)c2c1 [4334-1600, 2-(3-bromophenyl)-4-oxo-4H-benzo[d][1,3]oxazin-6-yl acetate]	74	28	71	28	30	28	70	74	28	30
Cn1c(-c2c(C(C)(C)C)oc3cc(OC(=O)C(C)(C)C)ccc3c2=O)nc2ccccc21 [4356-0595, 2-(tert-butyl)-3-(1-methyl-1H-benzo[d]imidazol-2-yl)-4-oxo-4H-chromen-7-yl pivalate]	69	36	57	–	–	–	–	–	4	21
O=c1oc(-c2ccco2)nc2sc3c(c12)CCCC3 [4789-3852, 2-(furan-2-yl)-5,6,7,8-tetrahydro-4H-benzo[4,5]thieno[2,3-d][1,3]oxazin-4-one]	81	55	61	–	–	–	–	–	18	25
c1ccc(-c2noc(CC3CCCCC3)n2)nc1 [4953-1443, 5-(cyclohexylmethyl)-3-(pyridin-2-yl)-1,2,4-oxadiazole]	51	–	–	–	–	–	–	–	–	–
CCOC(=O)CN1C(=O)c2ccccc2S1(=O)=O [5149-0030, Ethyl-2,3-dihydro-3-oxo-1,2-benzisothiazole-2-acetate-1,1-dioxide]	80	35	68	19	25	35	68	80	19	25
O=C(O)Cn1nnc(-c2ccncc2)n1 [8018-2960, 2-(5-(pyridin-4-yl)-2H-tetrazol-2-yl)acetic acid]	84	54	80	–	–	–	–	–	38	25
